In article PMC2365028, “Transepithelial Transport and Metabolism of Boronated Dipeptides Across Caco-2 and HCT-8 Cell Monolayers” (Metal-Based Drugs, 1996):
“And” between values parts separate entries of the source, which are not always exact repeats. Equal entries are not always repeated. Where a SMILES comes first, the peptide text is derived from it.

Key:
[1] = perfusion into the jejunum, two studies; cited from earlier work
[2] = test system: brush border aminopeptidases; details: rat brush border aminopeptidases; cited from earlier work
[3] = test system: Caco-2 cell monolayers; experiment: Apical-to-basal transport and metabolism across Caco-2 cell monolayers (Transwell); details: for Apparent permeability coefficient Pe + SD / % Mass Balance / % Mass Transported / % Mass in Apical Side / Pseudo first-order rate constant k + SD / % Ester in the basal compartment / % FA (corresponding free acid) in the basal compartment: 4 h; for % Ester in the basal compartment / % FA (corresponding free acid) in the basal compartment: Table 9, side-by-side experiment; for recovery after quantitating the free acids at the conclusion of transport experiments: ester plus free acid
From the text: (§1) TRANSEPITHELIAL TRANSPORT AND METABOLISM OF BORONATED DIPEPTIDES ACROSS CACO-2 AND HCT-8 CELL MONOLAYERS Amy L. Elkins,John G. Eley,3, Merrill C. […] This study examined the effect of boronation on the transepithelial transport and metabolism of three glycine-phenylalanine dipeptides in Caco-2 and HCT-8 cell monolayers. […] Oral delivery of proteins and peptides as therapeutic agents is problematic due to their low bioavailability. This is mainly due to both their poor permeability across cellular barriers and to enzymatic degradation that occurs in the gut lumen, brush border, and enterocyte cytoplasm (2). […] Such as a substitution may also have the potential to alter the in vivo bioavailability of dipeptides. […] This study was undertaken to determine the effect of boronation on the transepithelial transport and metabolism of three glycine-phenylalanine dipeptides. […] Caco-2 cells are human colon adenocarcinoma cells first isolated from a primary colonic tumor (4). The cell line undergoes spontaneous enterortic differentiation in culture after reaching cotfflucnce, and morphologically resembles small intestinal epitheliun after three xveeks in culture (5). These morphological characteristics include the development of a brush border region expressing microvilli, occluding junctions, dome formations, and the formation of tight junctions leading to cell polarity. […] The cell line expresses a dipeptide carrier transport system in both the apical and basal membranes (9-10). […] HCT-8 cells are human adenocarcinoma cells from the ileocecal region; as such, these cells may give a truer reflection of gut absorption compared to Caco-2 cells which are derived from the colonic region. The cells produce a polarized differentiated monolayer consisting of enterocyte-like columnar cells that are interconnected by mature tightjunctions and desmosomes and exposed microvilla (11). The structural and functional integrity of the tight junctions of cells grown on polyester filter cups (Falcon, BD) and membrane filter inserts (Transwell(R), Costar) have been confirmed by transmission electron microscopy, transepithelial electrical resistance measurements, and transport of impermeant markers such as mannitol and polyethylene glycol (11, 12). […] Compound//was donated by Boron Biologicals, Inc., Raleigh, NC. Compound 111 was synthesized as follows: L-phenylalanine methyl ester hydrochloride (2.09 g, 9.7 mmol) and dimethylglycine (1 g, 9.7 retool) xvere suspended in 30 ml dry tetrahydrofuran with 10 mmol of triethylamine, dicyclohexyl-carbodiinfide and hydrox3'benzotriazole. The reaction was stirred at room temperature for 48 hours under nitrogen and the solvent was removed under reduced pressure. The product was purified on silica gel, two void volumes of hexane, two void volumes hexane/ethanol (8'1), and then hexane/ethanol (5:1). […] For the transport studies, cells were diluted with growth medium to give a total of […] cells/cm in 1.5 mls. The 1.5 ntis was placed in the apical compartment of a Transwcll(R) (Costar). The Transxvell(R) system is a 6-well plate with each well having an apical compartment capacity of 1.5 ntis, a basal compartment capacity of 2.5 ntis, and a 4.71 cm polycarbonate microporous (0.45 gin) membrane separating the two compartments. Cell monolayers in the Transwell(R) were allowed to grow for 21 days while the medium was replaced every 3 days. The cells were grown in Dulbecco's Modified Eagle Medium (D-MEM) containing L-glutamine and sodium pyruvate at 37C under 5% CO-. and saturated humidity. Additives to the medium included 10% heat- inactivated fetal bovine serum, 10 mM nonessential amino acids, 100 units of penicillin and 100 mg of streptomycin per ml of medium. 278 A.L. Elkins, J.G. Eley, M.C.

[4] = Stability in HBSS/HEPES buffer and apical/basal media without the Transwell system; type: physicochemical; details: HBSS/HEPES buffer pH 7.4, 37C, or apical and basal media
[5] = in vitro; details: human, Caco-2
From the text: (§2) TRANSEPITHELIAL TRANSPORT AND METABOLISM OF BORONATED DIPEPTIDES ACROSS CACO-2 AND HCT-8 CELL MONOLAYERS Amy L. Elkins,John G. Eley,3, Merrill C. […] This study examined the effect of boronation on the transepithelial transport and metabolism of three glycine-phenylalanine dipeptides in Caco-2 and HCT-8 cell monolayers. […] Oral delivery of proteins and peptides as therapeutic agents is problematic due to their low bioavailability. This is mainly due to both their poor permeability across cellular barriers and to enzymatic degradation that occurs in the gut lumen, brush border, and enterocyte cytoplasm (2). […] Such as a substitution may also have the potential to alter the in vivo bioavailability of dipeptides. […] This study was undertaken to determine the effect of boronation on the transepithelial transport and metabolism of three glycine-phenylalanine dipeptides. […] Caco-2 cells are human colon adenocarcinoma cells first isolated from a primary colonic tumor (4). The cell line undergoes spontaneous enterortic differentiation in culture after reaching cotfflucnce, and morphologically resembles small intestinal epitheliun after three xveeks in culture (5). These morphological characteristics include the development of a brush border region expressing microvilli, occluding junctions, dome formations, and the formation of tight junctions leading to cell polarity. […]

[6] = 0.01N NaOH, 37C, 6 hours
[7] = test system: HCT-8 cell monolayers; experiment: Apical-to-basal transport across HCT-8 cell monolayers (Transwell)
From the text: as §1, with “The cells were grown in Dulbecco's Modified Eagle Medium (D-MEM) containing L-glutamine and sodium pyruvate at 37C under 5% CO-. and saturated humidity. Additives to the medium included 10% heat- inactivated fetal bovine serum, 10 mM nonessential amino acids, 100 units of penicillin and 100 mg of streptomycin per ml of medium. 278 A.L. Elkins, J.G. Eley, M.C.” left out

[8] = test system: Caco-2 cell monolayers; experiment: Basal-to-apical transport across Caco-2 cell monolayers; details: basal-to-apical
From the text: as §2

[9] = test system: various murine and human tissue cultured cancer cells; details: cited from earlier work
[10] = Table 10, 37C static, 4 h, initial concentration 0.75 mM
[11] = Table 1, 37C static, initial concentration 0.75 mM
[12] = Table 1, 37C static, initial concentration 1.0 mM
[13] = Table 1, 37C static, initial concentration 2.5 mM
[14] = Table 1, 37C static, initial concentration 5.0 mM
[15] = Table 1, 37C static, initial concentration 7.5 mM
[16] = Table 2, 37C static, initial concentration 1.0 mM
[17] = Table 2, 37C static, initial concentration 5.0 mM (fourth row)
[18] = Table 2, 37C static, initial concentration 7.5 mM

## NCC(=O)N[C@@H](Cc1ccccc1)C(=O)O [glycine-phenylalanine] (H-Gly-Phe-OH)
[1]
  disappearance rate: 68% and 79%
[2]
  substrate specificity: 85%

## COC(=O)[C@H](Cc1ccccc1)NC(=O)CN(C)C [Compound III, N,N-dimethylglycyl-L-phenylalanine methyl ester]
[3]; Table 8, 4C Static
  Apparent permeability coefficient Pe + SD: 8 ×10⁻⁶ cm/s

## COC(=O)[C@H](Cc1ccccc1)NC(=O)[BH2-][NH+](C)C [Compound II, N-[(dimethylamine-boryl)-carbonyl]-L-phenylalanine methyl ester]
[4]
  % of the original ester at 25 hours: 90%
[3]; Table 5, 4C Rocking
  % Mass Balance: 81.8%
  % Mass Transported: 37.3%
  % Mass in Apical Side: 44.5%
[3]; Table 5, 4C Static
  % Mass Balance: 79.9%
  % Mass Transported: 39.3%
  % Mass in Apical Side: 40.6%
[3]; Table 5, 37C Static
  % Mass Balance: 57.7%
  % Mass Transported: 52.7%
  % Mass in Apical Side: 5.0%
[3]; Table 5, initial concentration figure not printed (mM), 4C Rocking
  Mass Transported (collected in the basal medium after 4 hours): 0.56
[3]; Table 5, initial concentration figure not printed (mM), 4C Static
  Mass Transported (collected in the basal medium after 4 hours): 0.59
[3]; Table 5, initial concentration figure not printed (mM), 37C Static
  Mass Transported (collected in the basal medium after 4 hours): 0.79
[3]; Table 6, 37C Rocking
  Apparent permeability coefficient Pe + SD: 48 ×10⁻⁶ cm/s
  Pseudo first-order rate constant k + SD: 2.8 + 0.22 x 104/sec
[3]; 4C Rocking
  % Ester in the basal compartment: 55.5%
  % FA (corresponding free acid) in the basal compartment: inhibited
[3]; 4C Static
  % Ester in the basal compartment: 59.4%
  % FA (corresponding free acid) in the basal compartment: inhibited
[3]; 37C Static
  % Ester in the basal compartment: 48.6% and 49%
  % FA (corresponding free acid) in the basal compartment: 51.5% and 52%
[3]; apical-to-basal
  mode of transport across the monolayer: passive diffusion
[3]; apical-to-basal, 4 hours
  compound recovered after transport through Caco-2 cell monolayers: 58%
[3]
  recovery after quantitating the free acids at the conclusion of transport experiments: 100%

## CCCOC(=O)c1ccc(O)cc1 [Propyl paraben, reference compound]
[3]; Caco-2
  mode of transport across the monolayer: passive diffusion
[3]; human, Caco-2, 4 h
  compound recovered after transport through Caco-2 cell monolayers: 100%
[5]
  recovery: 100%

## COC(=O)[C@H](Cc1ccccc1)NC(=O)[BH2-][N+](C)(C)C [Compound I, N-[(trimethylamine-boryl)-carbonyl]-L-phenylalanine methyl ester]
[4]
  % of the original ester at 25 hours: 96%
[6]
  ester degradation to the free acid: all ofthe ester was degraded
[7]; HCT-8 cell monolayers
  unaccounted for as the ester or the respective free acid: ~45%
[7]; [10]
  % Mass Balance: 88.2%
  % Mass Transported: 77.3%
  % Mass in Apical Side: 10.9%
[7]; Table 10, 37C static, initial concentration 0.75 mM
  Mass Transported (collected in the basal medium after 4 hours): 0.87
[3]; [11]
  % Mass Balance: 63.8%
  % Mass Transported: 62.2%
  % Mass in Apical Side: 1.6%
[3]; [12]
  % Mass Balance: 67.8%
  % Mass Transported: 60.0%
  % Mass in Apical Side: 7.8%
  Mass Transported (collected in the basal medium after 4 hours): 0.90
[3]; [13]
  % Mass Balance: 73.0%
  % Mass Transported: 64.0%
  % Mass in Apical Side: 9.0%
  Mass Transported (collected in the basal medium after 4 hours): 2.4
[3]; [14]
  % Mass Balance: 71.0%
  % Mass Transported: 62.7%
  % Mass in Apical Side: 8.3%
  Mass Transported (collected in the basal medium after 4 hours): 4.7
[3]; [15]
  % Mass Balance: 74.6%
  % Mass Transported: 66.7%
  Mass Transported (collected in the basal medium after 4 hours): 7.5
[3]; Table 2, 37C static, initial concentration 0.75 mM
  Pseudo first-order rate constant k + SD: 1.76 + 0.06 x 104/sec
[3]; [16]
  Apparent permeability coefficient Pe + SD: 35.1 ×10⁻⁶ cm/s
  Pseudo first-order rate constant k + SD: 1.70 + 0.08 x 104/sec
[3]; Table 2, 37C static, initial concentration 2.5 mM
  Apparent permeability coefficient Pe + SD: 37.5 ×10⁻⁶ cm/s
[3]; [17]
  Apparent permeability coefficient Pe + SD: 32 ×10⁻⁶ cm/s
  Pseudo first-order rate constant k + SD: 1.35 + 0.17 x 104/sec
[3]; [18]
  Apparent permeability coefficient Pe + SD: 37.5 ×10⁻⁶ cm/s
  Pseudo first-order rate constant k + SD: 1.56 + 0.11 x 104/sec
[3]; Table 3, 2.5 mM, 4C Rocking
  % Mass Balance: 89.3%
  % Mass Transported: 48.6%
  % Mass in Apical Side: 40.7%
[3]; Table 3, 2.5 mM, 37C Rocking
  % Mass in Apical Side: 2%
[3]; Table 3, 2.5 mM, 37C Static
  % Mass Balance: 73.1%
  % Mass Transported: 56.9%
[3]; Table 3, initial concentration 2.5 mM, 4C Rocking
  Mass Transported (collected in the basal medium after 4 hours): 1.8
[3]; Table 3, initial concentration 2.5 mM, 37C Rocking
  Mass Transported (collected in the basal medium after 4 hours): 3.0
[3]; Table 3, initial concentration 2.5 mM, 37C Static
  Mass Transported (collected in the basal medium after 4 hours): 2.1
[3]; Table 4, 2.5 mM, 37C Rocking
  Pseudo first-order rate constant k + SD: 3.54 + 0.06 x 104/sec
[3]; Table 4, 2.5 mM, 37C Static
  Pseudo first-order rate constant k + SD: 1.03 + 0.06 x 104/sec
[3]; 4C Rocking
  % Ester in the basal compartment: 74.0%
  % FA (corresponding free acid) in the basal compartment: none
[3]; 4C Static
  % Ester in the basal compartment: 61.8%
  % FA (corresponding free acid) in the basal compartment: none
[3]; 37C Static
  % Ester in the basal compartment: 44.4% and 44%
  % FA (corresponding free acid) in the basal compartment: 44.4% and 44%
[3]; apical-to-basal
  mode of transport across the monolayer: passive diffusion
[3]; apical-to-basal, 4 hours
  compound recovered after transport through Caco-2 cell monolayers: Approximately 70%
[3]
  recovery after quantitating the free acids at the conclusion of transport experiments: 100%
[3]; side-by-side experiment, 37C static, 4 hours
  ester remaining in the apical compartment: none
[8]
  recovery in basal-to-apical transport experiments: 100%
[9]
  cytotoxicity: potent
